Source: patent US20050142581A1, “Microrna as ligands and target molecules” (priority 2003, published 2005)
Oligonucleotides are written 5' to 3', each unit as a sugar letter and its base; * is a phosphorothioate linkage, no mark a phosphodiester; rarer units and linkages stand in square brackets, end groups in braces. Plain capitals give the bases only. e = 2'-O-(2-methoxyethyl) (MOE); [5mC] = 5-methylcytosine; d = 2'-deoxy (DNA)

Each substance was assayed on human CD40 mRNA (assay: Inhibition of CD40 mRNA levels by oligonucleotides (real-time RT-PCR)). Conditions: 2'-MOE gapmers, 18 nucleotides, phosphorothioate throughout; averaged from three experiments.
Assay type: cell-based
Design: concentration or dose not given beside the values
Description: When cells reach about 80% confluency, they are treated with oligonucleotide. For cells grown in 96-well plates, wells are washed once with 200 μl Opti-MEM-1 reduced-serum medium (Life Technologies) and then treated with 130 μl of Opti-MEM-1 containing 3.75 μg/ml LIPOFECTIN (Life Technologies) and the desired oligonucleotide at a final concentration of 150 nM. After 4 hours of treatment, the medium was replaced with fresh medium. Cells were harvested 16 hours after oligonucleotide treatment.
Poly(A)+ mRNA was isolated according to Miura et al. (Clin. Chem., 1996, 42, 1758). Briefly, for cells grown on 96-well plates, growth medium was removed from the cells and each well was washed with 200 ul cold PBS. 60 ul lysis buffer (10 mM Tris-HCl, pH 7.6, 1 mM EDTA, 0.5 M NaCl, 0.5% NP-40, 20 mM vanadyl-ribonucleoside complex) was added to each well, the plate was gently agitated and then incubated at room temperature for five minutes. 55 ul of lysate was transferred to Oligo d(T) coated 96 well plates (AGCT Inc., Irvine, Calif.). Plates were incubated for 60 minutes at room temperature, washed 3 times with 200 ul of wash buffer (10 mM Tris-HCl pH 7.6, 1 mM EDTA, 0.3 M NaCl). After the final wash, the plate was blotted on paper towels to remove excess wash buffer and then air-dried for 5 minutes. 60 ul of elution buffer (5 mM Tris-HCl pH 7.6), preheated to 70° C. was added to each well, the plate was incubated on a 90° hot plate for 5 minutes, and the eluate then transferred to a fresh 96 well plate. Cells grown on 100 mm or other standard plates may be treated similarly, using appropriate volumes of all solutions.
Quantitation of CD40 mRNA levels was determined by real-time PCR (RT-PCR) using the ABI PRISM 7700 Sequence Detection System (PE-Applied Biosystems, Foster City, Calif.) according to manufacturer's instructions. This is a closed-tube, non-gel-based, fluorescence detection system which allows high-throughput quantitation of polymerase chain reaction (PCR) products in real-time.
As opposed to standard PCR, in which amplification products are quantitated after the PCR is completed, products in RT-PCR are quantitated as they accumulate. This is accomplished by including in the PCR reaction an oligonucleotide probe that anneals specifically between the forward and reverse PCR primers, and contains two fluorescent dyes. A reporter dye (e.g., JOE or FAM, PE-Applied Biosystems, Foster City, Calif.) is attached to the 5′ end of the probe and a quencher dye (e.g., TAMRA, PE-Applied Biosystems, Foster City, Calif.) is attached to the 3′ end of the probe. When the probe and dyes are intact, reporter dye emission is quenched by the proximity of the 3′ quencher dye. During amplification, annealing of the probe to the target sequence creates a substrate that can be cleaved by the 5′-exonuclease activity of Taq polymerase.
With each cycle, additional reporter dye molecules are cleaved from their respective probes, and the fluorescence intensity is monitored at regular (six-second) intervals by laser optics built into the ABI PRISM 7700 Sequence Detection System. In each assay, a series of parallel reactions containing serial dilutions of mRNA from untreated control samples generates a standard curve that is used to quantitate the percent inhibition after antisense oligonucleotide treatment of test samples.
RT-PCR reagents were obtained from PE-Applied Biosystems, Foster City, Calif. RT-PCR reactions were carried out by adding 25 ul PCR cocktail (1× Taqman buffer A, 5.5 mM MgCl2, 300 uM each of dATP, dCTP and dGTP, 600 uM of dUTP, 100 nM each of forward primer, reverse primer, and probe, 20 U RNAse inhibitor, 1.25 units AmpliTaq Gold, and 12.5 U MuLV reverse transcriptase) to 96 well plates containing 25 ul poly(A) mRNA solution. […]
“19211 (DNA e[5mC]*e[5mC]*eA*eG*dG*dC*dG*dG*dC*dA*dG*dG*dA*dC*e[5mC]*eA*e[5mC]*eT; antisense) [compound 19211]” was tested, and the “% Inhibition (Inhibition of CD40 mRNA Levels by Chimeric Phosphorothioate Oligonucleotides)” value (shortened to “% Inhibition”) was 75.71%.
In the case of “19212 (DNA eG*eA*e[5mC]*e[5mC]*dA*dG*dG*dC*dG*dG*dC*dA*dG*dG*eA*e[5mC]*e[5mC]*eA; antisense) [compound 19212]”, the “% Inhibition” value is reported as 77.23%.
“19213 (DNA eA*eG*eG*eT*dG*dA*dG*dA*dC*dC*dA*dG*dG*dC*eG*eG*e[5mC]*eA; antisense) [compound 19213]” was tested, and the “% Inhibition” value was 80.82%.
“19214 (DNA e[5mC]*eA*eG*eA*dG*dG*dC*dA*dG*dA*dC*dG*dA*dA*e[5mC]*e[5mC]*eA*eT; antisense) [compound 19214]” was tested, and the “% Inhibition” value was 23.68%.
In the case of “19215 (DNA eG*e[5mC]*eA*eG*dA*dG*dG*dC*dA*dG*dA*dC*dG*dA*eA*e[5mC]*e[5mC]*eA; antisense) [compound 19215]”, the “% Inhibition” value is reported as 45.97%.
For “19216 (DNA eG*e[5mC]*eA*eA*dG*dC*dA*dG*dC*dC*dC*dC*dA*dG*eA*eG*eG*eA; antisense) [compound 19216]”, the “% Inhibition” value was 65.80%.
With “19217 (DNA eG*eG*eT*e[5mC]*dA*dG*dC*dA*dA*dG*dC*dA*dG*dC*e[5mC]*e[5mC]*e[5mC]*eA; antisense) [compound 19217]” the “% Inhibition” value was 74.73%.
In the case of “19218 (DNA eG*eA*e[5mC]*eA*dG*dC*dG*dG*dT*dC*dA*dG*dC*dA*eA*eG*e[5mC]*eA; antisense) [compound 19218]”, the “% Inhibition” value is reported as 67.21%.
With “19219 (DNA eG*eA*eT*eG*dG*dA*dC*dA*dG*dC*dG*dG*dT*dC*eA*eG*e[5mC]*eA; antisense) [compound 19219]” the “% Inhibition” value was 65.14%.
In the case of “19220 (DNA eT*e[5mC]*eT*eG*dG*dA*dT*dG*dG*dA*dC*dA*dG*dC*eG*eG*eT*e[5mC]; antisense) [compound 19220]”, the “% Inhibition” value is reported as 78.71%.
“19221 (antisense eG*eG*eT*eG*dG*dT*dT*dC*dT*dG*dG*dA*dT*dG*eG*eA*e[5mC]*eA) [compound 19221]” was tested, and the “% Inhibition” value was 81.33%.

Same assay, conditions: oligodeoxynucleotides with phosphorothioate backbones throughout; averages from three experiments
For “18699 (DNA dT*dG*dG*dC*dA*dT*dC*dC*dA*dT*dG*dT*dA*dA*dA*dG*dT*dC; antisense) [compound 18699]”, the “% INHIB. (Inhibition of CD40 mRNA Levels by Phosphorothioate Oligodeoxynucleotides)” value was 0.00%.
With “18700 (DNA dC*dG*dG*dT*dT*dG*dG*dC*dA*dT*dC*dC*dA*dT*dG*dT*dA*dA; antisense) [compound 18700]” the “% INHIB. (Inhibition of CD40 mRNA Levels by Phosphorothioate Oligodeoxynucleotides)” value was 0.00%.
With “18701 (DNA dC*dT*dC*dT*dT*dT*dG*dC*dC*dA*dT*dC*dC*dT*dC*dC*dT*dG; antisense) [compound 18701]” the “% INHIB. (Inhibition of CD40 mRNA Levels by Phosphorothioate Oligodeoxynucleotides)” value was 4.38%.
In the case of “18702 (DNA dC*dT*dG*dT*dC*dT*dC*dT*dC*dC*dT*dG*dC*dA*dC*dT*dG*dA; antisense) [compound 18702]”, the “% INHIB. (Inhibition of CD40 mRNA Levels by Phosphorothioate Oligodeoxynucleotides)” value is reported as 0.00%.
In the case of “18703 (DNA dG*dG*dT*dG*dC*dA*dG*dC*dC*dT*dC*dA*dC*dT*dG*dT*dC*dT; antisense) [compound 18703]”, the “% INHIB. (Inhibition of CD40 mRNA Levels by Phosphorothioate Oligodeoxynucleotides)” value is reported as 0.00%.
With “18704 (DNA dA*dA*dC*dT*dG*dC*dC*dT*dG*dT*dT*dT*dG*dC*dC*dC*dA*dC; antisense) [compound 18704]” the “% INHIB. (Inhibition of CD40 mRNA Levels by Phosphorothioate Oligodeoxynucleotides)” value was 33.89%.
With “18705 (DNA dC*dT*dT*dC*dT*dG*dC*dC*dT*dG*dC*dA*dC*dC*dC*dC*dT*dG; antisense) [compound 18705]” the “% INHIB. (Inhibition of CD40 mRNA Levels by Phosphorothioate Oligodeoxynucleotides)” value was 0.00%.
With “18706 (DNA dA*dC*dT*dG*dA*dC*dT*dG*dG*dG*dC*dA*dT*dA*dG*dC*dT*dC; antisense) [compound 18706]” the “% INHIB. (Inhibition of CD40 mRNA Levels by Phosphorothioate Oligodeoxynucleotides)” value was 0.00%.
